Results as given in patent US8478395B2, “Method of measuring electrical resistance value of corneal trans-epithelium” (Nagasaki University, priority 2008, dated 2013).

Legend:
[1] = test system: cornea of a living rabbit; experiment: Living corneal TER measurement requiring no anterior chamber centesis (conjunctival sac method); format: in vivo; details: 0.02% BAC
Description: Evaluation of Corneal Disorder Due to BAC by Living Corneal TER Measurement Requiring No Anterior Chamber Centesis (Referred to as Conjunctival Sac Method) (FIG. 1)
Silver-silver chloride electrode having a rod shape was placed on a cornea and into a conjunctival sac of a living rabbit, and a 0.02% BAC was administered thereto. A change in the corneal TER due to exposure to BAC was measured by a voltage-electric resistance value measuring device. A rubber ring (6 mm in the inner diameter) was fixed onto the cornea around the periphery of the electrode by using a bioadhesive (Aron alpha A from Sankyo Co., Ltd.) for insulation, so that an electric current is surely passed through the epithelium of the cornea. An AC current of ±20 μA was flowed, and a change curve of TER, a reduction of TER and a TER value after a lapse of 60 seconds from the exposure to 0.02% BAC, were compared with those from the conventional measuring method in which the anterior chamber centesis was carried out (comparative example 1). The TER value was calculated by subtracting an electric resistance value between the anterior chamber and the conjunctival sac obtained in a preliminary experiment from the measured value.

[2] = test system: cornea of a rabbit; experiment: Living corneal TER measurement using anterior chamber centesis (anterior chamber centesis method); format: in vivo; details: 0.02% BAC
Description: Evaluation of Corneal Disorder Due to BAC by Living Corneal TER Measurement Using Anterior Chamber Centesis (Referred to as “Anterior Chamber Centesis Method”)
In accordance with the method described in non-Patent Document 4 supra, electrodes were placed on a cornea and into an anterior chamber of a rabbit, and after administration of 0.02% BAC, a corneal TER was measured.

[3] = test system: cornea of a living rabbit; experiment: Corneal TER measurement with the integrated TER measuring device of FIG. 6; format: in vivo, Japanese white rabbit; details: 0.02% BAC dropped onto the eye, one minute after the administration, device of FIG. 6, n=3
Description: A silver electrode and a silver-silver chloride electrode having a diameter of 1 mm were placed on a round cover glass having a diameter of 12 mm. PDMS having a circular cylinder shape with 10 mm in diameter and 6 mm in inner diameter and having a curvature radius of the corneal contact surface of 7.9 mm was secured onto the cover glass by using an adhesive. An Eppendorf tube was attached to a rear side (on the side opposite to the corneal contact surface (cover glass side)) for mount onto a slit-lamp. The inner space of the PDMS was filled with an atelocollagen gel and its curvature radius was adjusted to 7.9 mm.
A silver electrode and a silver chloride electrode having a diameter of 1 mm were placed on a PET sheet of 0.005×0.5×1 cm, at position of 1 mm from the distal end of the sheet on the eyeball side. The PET sheet, the silver electrode and the silver chloride electrode were thinly coated with a collagen gel. […]
By using thus prepared TER measuring device, a change in the corneal TER of a living rabbit was measured. […]
A 0.02% BAC was dropped onto the eye of the rabbit, and the resulting TER value was compared with the TER value before the administration. […] Prior to the BAC administration (indicated as “normal cornea” in FIG. 7) as well as after the BAC administration, within one second after the device was contacted with the cornea, a stable TER value could be measured.

benzalkonium chloride [BAC]
TER value ([1]; after a lapse of 60 seconds): 175±14 Ωcm^2 | TER (TER before the administration of the BAC set to 100%) ([1]; after a lapse of 60 seconds, p<0.01): 13.5±2.1% | TER (TER before the administration of the BAC set to 100%) ([1]; ten seconds after the administration): 35.1±6.8% | TER (TER before the administration of the BAC set to 100%) ([2]; 60 seconds after the administration): 19.7±5.9% | TER value ([2]; after a lapse of 60 seconds): 138±10 Ωcm^2 | Change of TER compared with the TER value before the administration [3]: significantly reduced
